Assay results reported in publication PMC7449170, “ATI-2173, a Novel Liver-Targeted Non-Chain-Terminating Nucleotide for Hepatitis B Virus Cure Regimens” (Antimicrobial Agents and Chemotherapy, 2020).
Like-named read-outs stand apart in the source and are kept apart here.

Columns and labels:
HBV rtL180M+M204V = assay: microbe, parasite or virus in culture; type: cell-based; details: Hepatitis B virus, HepG2
HBV rtA181V = assay: microbe, parasite or virus in culture; type: cell-based; details: Hepatitis B virus, HepG2
HBV rtM204V = assay: microbe, parasite or virus in culture; type: cell-based; details: Hepatitis B virus, HepG2
HBV rtV173L+M204I = assay: microbe, parasite or virus in culture; type: cell-based; details: Hepatitis B virus, HepG2
HBV wild type (U95551) = assay: Cross-resistance in transfected HepG2 cells, wild type; type: cell-based, Hepatitis B virus
HBV [1] = assay: HBV combination studies with ATI-2173 in primary human hepatocytes (MacSynergy); type: cell-based, Hepatitis B virus; details: compound combined with ATI-2173, primary human hepatocytes; for Combination index: MacSynergy
HBV rtM204I = assay: microbe, parasite or virus in culture; type: cell-based; details: Hepatitis B virus, HepG2
HBV rtN236T = assay: microbe, parasite or virus in culture; type: cell-based; details: Hepatitis B virus, HepG2
[2] = human, in vivo; cited from earlier work
in vitro = details: human
Procedure: HK-2 human kidney cells were obtained from ATCC (Manassas, VA) and cultured in Gibco Keratinocyte serum-free medium (Thermo Fisher Scientific, Waltham, MA) supplemented with 10% FBS (Peak Serum, Wellington, CO). Human skeletal muscle cells were obtained from Lonza (Walkersville, MD) and cultured in SkGM-2 skeletal muscle cell growth medium-2 (Lonza). Both HK-2 and skeletal muscle cells were cultured humidified at 37°C and 5% CO2. Cryopreserved human primary hepatocytes and medium were received from Lonza. Cryopreserved iCell cardiomyocytes and cardiomyocyte medium were purchased from Stem Cell Technologies (Vancouver, BC, Canada). Cryopreserved human bone marrow mononuclear cells were purchased from Lonza with HemaTox Myeloid medium purchased from [sequence] […] All cryopreserved cells (human primary hepatocytes, iCell cardiomyocytes, and human bone marrow mononuclear cells) were stored in vapor phase liquid nitrogen until the day of plating. […] Serial dilutions of compounds in DMSO were as follows: 100, 10, 1, 0.1, 0.01, 0.001, 0.0001, and 0.00001 μM (final concentration of DMSO in medium was 0.5%).
HK-2 and skeletal muscle cells were seeded into 96-well plates at 5,000 cells/well and incubated overnight at 37°C and 5% CO2. Human hepatocytes were thawed, diluted in hepatocyte plating medium (Lonza) and seeded into a 96-well, collagen-coated plates at 2.5 × 10^4 cells/well. Hepatocytes were incubated for 6 h at 37°C in 5% CO2, then the medium was aspirated and replaced with hepatocyte culture medium at 50 μl/well, and finally incubated overnight. The iCell cardiomyocytes were thawed, suspended in iCell thawing/plating medium, and plated at 4 × 10^4 cells/well in a gelatin-coated 96-well plate. iCells were incubated for 2 days at 37°C in 7% CO2. […]
Following incubation, cells were dosed and incubated for 72 h at 37°C and 5% CO2. Following incubation, the endpoint cell viability CellTiter-Glo 2.0 assay (Promega, San Luis Obispo, CA) was performed and luminescence data collected on a Synergy 4 plate reader (Biotek, Winooski, VT). […]

[3] = in vivo, po; cited from earlier work
[4] = Cell viability (CC50) in HepG2.2.15 cells; details: human
HBV [5] = system: HBV; set-up: method as in PMID 8834884, PMID 7786007, PMID 20516559; details: cell-based in vitro systems; read-out: Anti-HBV EC50; cited from earlier work
HBV DNA = system: HBV DNA; set-up: method as in PMID 15239097; details: patients, for 6 months following treatment; cited from earlier work
HBV genotype D = assay: Anti-HBV activity in HepG2.2.15 cells (extracellular HBV DNA by qPCR); type: cell-based; details: Hepatitis B virus
Procedure: ATI-2173 was obtained from WuXi SynTheAll. Entecavir (positive control) was obtained from Shanghai Titan Scientific Co., Ltd. HepG2.2.15 cells (derived from human hepatoblastoma cell-like HepG2) contain four 5′ to 3′ tandem copies of the HBV genotype D and were provided by WuXi. HepG2.2.15 cells were cultured in Dulbecco’s modified Eagle medium (DMEM)/F12 (Invitrogen, 11330032) supplemented with 2% fetal bovine serum (FBS) (HyClone, SV30087.03), 1% L-glutamine, 1% minimum essential medium (MEM) nonessential amino acid solution (NEAA), and 1% penicillin-streptomycin solution. QIAamp 96 DNA blood kit was purchased from Qiagen (51162). […] Culture medium containing ATI-2173 or entecavir (serially diluted) was added to cells on day 2 and refreshed on day 5. ATI-2173 dilutions were: 0.0006, 0.0024, 0.0098, 0.0391, 0.1563, 0.6250, 2.5000, and 10.0000 μM. On day 8, cell culture supernatants were collected and DNA was extracted by the QIAamp 96 DNA blood kit. qPCR was run at 95°C for 10 min, then cycled at 95°C for 15 s, 60°C for 1 min, for a total of 40 cycles. HBV DNA content in the samples was calculated according to the standard curve and CT (cycle threshold of qPCR) values of a sample. Data were normalized for maximum and minimum copy numbers.

HBV coreT33N = assay: microbe, parasite or virus in culture; type: cell-based, Hepatitis B virus; details: HepG2 cells, mutation coreT33N; read-out: EC50
HBV coreP25A = assay: microbe, parasite or virus in culture; type: cell-based, Hepatitis B virus; details: HepG2 cells, mutation coreP25A; read-out: EC50
[6] = system: clevudine-resistant mutants; details: mutants from viral break-through patients, predominantly M204I; cited from earlier work
HBV rtS202G+M204I = assay: microbe, parasite or virus in culture; type: cell-based; details: Hepatitis B virus, HepG2
[7] = system: HBV genotypes A, B, C, D, E, F, G, and H; assay: microbe, parasite or virus in culture; type: cell-based; details: Hepatitis B virus, HepG2, read-out: IC50s, inhibition of HBV DNA across genotypes
HBV rtS202G+M204I+M250V = assay: microbe, parasite or virus in culture; type: cell-based; details: Hepatitis B virus, HepG2

Structure (SMILES): Nc1ccn([C@@H]2CS[C@H](CO)O2)c(=O)n1 [Lamivudine, reference compound]
- EC50 (HBV rtL180M+M204V): > 10000 nM
- EC50 (HBV rtA181V): 210 nM
- EC50 (HBV rtM204V): 3510 nM
- EC50 (HBV rtV173L+M204I): > 10000 nM
- EC50 (HBV wild type (U95551); Hepatitis B virus): 96 nM
- Combination effect (HBV [1]): Additive (A combination index of <25 is considered additive)
- Combination index (HBV [1]): −5.86
- EC50 (HBV rtM204I): > 10000 nM
- EC50 (HBV rtN236T): 130 nM

Structure (SMILES): Cc1cn([C@H]2O[C@@H](CO)[C@H](O)[C@H]2F)c(=O)[nH]c1=O [Clevudine, 1-(2-fluoro-5-methyl-β,L-arabinofuranosyl) uracil]
- Myopathy on long-term exposure [2]: reversible proximal myopathy symptoms emerged
- CC50 at 72 h (in vitro): > 100000 nM
- Plasma concentrations at effective doses [3]: up to 1 μM
- CC50 ([4]; HepG2.2.15 cells): > 10000 nM
- EC50 (HBV [5]): ~100 nM
- Sustained viral suppression, reduction from baseline (HBV DNA): ~2 log10
- EC50 (HBV genotype D; HepG2.2.15, read-out: EC50, extracellular HBV DNA): 100 nM

Structure (SMILES): CCOC(=O)C1=C(CN2CCOCC2)NC(c2nccs2)=NC1c1ccc(F)cc1Br (stereo not shown) [GLS4]
- EC50 (HBV coreT33N): 3080 nM
- EC50 (HBV coreP25A): 295 nM
- EC50 (HBV wild type (U95551)): 15 nM
- Combination effect (HBV [1]): Additive (A combination index of <25 is considered additive)
- Combination index (HBV [1]): 7.59

Structure (SMILES): COc1ccccc1/C(Br)=C(\NC(=O)c1ccc([N+](=O)[O-])cc1)C(=O)N1CCCCC1 [AT-130]
- EC50 (HBV coreT33N): > 10000 nM
- EC50 (HBV wild type (U95551)): 246 nM

Structure (SMILES): C[C@H](Cn1cnc2c(N)ncnc21)OCP(=O)(O)O [Tenofovir]
- Combination effect (HBV [1]): Additive (A combination index of <25 is considered additive)
- Combination index (HBV [1]): 8.56
- Activity against clevudine-resistant mutants [6]: active

Structure (SMILES): C=C1[C@H](CO)[C@@H](O)C[C@@H]1n1cnc2c(=O)[nH]c(N)nc21 [Entecavir]
- EC50 (HBV rtS202G+M204I): 9960 nM
- EC50 (HBV wild type (U95551); Hepatitis B virus): 3 nM
- IC50 [7]: 0.5 to 2.2 nM
- Combination effect (HBV [1]): Minor synergism (25 to 50 is considered minor synergism)
- Combination index (HBV [1]): 38.62
- CC50 [4]: > 50 nM
- Activity against clevudine-resistant mutants [6]: not
- EC50 (HBV rtS202G+M204I+M250V): 21000 nM
- EC50 (HBV genotype D; HepG2.2.15 cells, control compound, read-out: EC50, extracellular HBV DNA): 0.6 nM

Structure (SMILES): Nc1ncnc2c1ncn2CCOCP(=O)(O)O [Adefovir]
- Combination effect (HBV [1]): Minor synergism (25 to 50 is considered minor synergism)
- Combination index (HBV [1]): 32.85
